Assay results published in the supplement of paper PMC10307832.

Tests used:
Assay in all cases: relative viability (nuclei count vs DMSO), 5 days (fraction); higher = more cells survive
Shikonin = compound: CC(C)=CC[C@@H](O)C1=CC(=O)c2c(O)ccc(O)c2C1=O [Shikonin]
How it was run: (§1)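 After an overnight hold at 37 °C, lung cancer cell lines in 1536-well plates were pinned with five library-drug doses (not always all listed), each √10 from the next, on vehicle-anchored plates. The cells stayed 5 days without fresh medium, then a one-step fix, permeabilisation and Hoechst stain preceded 4× imaging and MetaXpress nuclear counts. A plate passed only with control CV under 25% and at least one doubling. Viability is the median, over plates, of treated-well nuclei relative to vehicle-well nuclei.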

[1] = compound: CC(C)N(CCCNC(=O)Nc1ccc(C(C)(C)C)cc1)C[C@H]1O[C@@H](n2ccc3c(N)ncnc32)[C@H](O)[C@@H]1O
How it was run: as §1

Shikonin + Trametinib = compound: CC(C)=CC[C@@H](O)C1=CC(=O)c2c(O)ccc(O)c2C1=O [Shikonin] + CC(=O)Nc1cccc(-n2c(=O)n(C3CC3)c(=O)c3c(Nc4ccc(I)cc4F)n(C)c(=O)c(C)c32)c1 [Trametinib] (partner 0.02 µM)
How it was run: (§2)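 Dosing by pin tool came one day after lung cancer cell lines were seeded in 1536-well plates, using either one drug or a fixed anchor-drug dose plus five library-drug doses (not always all listed) in √10 steps. After 5 days, nuclei were counted on 4× images. Relative viability is treated-well nuclei count divided by vehicle-well nuclei count, and values are medians of duplicate plates.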

[2] = compound: CC(C)N(CCCNC(=O)Nc1ccc(C(C)(C)C)cc1)C[C@H]1O[C@@H](n2ccc3c(N)ncnc32)[C@H](O)[C@@H]1O + CC1(C)CCC(c2ccc(Cl)cc2)=C(CN2CCN(c3ccc(C(=O)NS(=O)(=O)c4ccc(N[C@H](CCN5CCOCC5)CSc5ccccc5)c(S(=O)(=O)C(F)(F)F)c4)cc3)CC2)C1 [Navitoclax] (partner 0.5 µM)
How it was run: as §2

| Cell Line | relative viability (Shikonin; 0.01 µM) | relative viability (Shikonin; 0.1 µM) | relative viability (Shikonin; 0.3162 µM) | relative viability (Shikonin; 1 µM) | relative viability ([1]; 0.08 µM) | relative viability ([1]; 0.253 µM) | relative viability ([1]; 0.8 µM) | relative viability ([1]; 2.53 µM) | relative viability ([1]; 8 µM) | relative viability (Shikonin + Trametinib; first compound 0.01 µM) | relative viability (Shikonin + Trametinib; first compound 0.1 µM) | relative viability (Shikonin + Trametinib; first compound 0.3162 µM) | relative viability (Shikonin + Trametinib; first compound 1 µM) | relative viability ([2]; first compound 0.08 µM) | relative viability ([2]; first compound 0.253 µM) | relative viability ([2]; first compound 0.8 µM) | relative viability ([2]; first compound 2.53 µM) | relative viability ([2]; first compound 8 µM) |
| --- | --- | --- | --- | --- | --- | --- | --- | --- | --- | --- | --- | --- | --- | --- | --- | --- | --- | --- |
| COR-L 105 | 0.979 | 0.973 | 0.911 | 0.855 | 0.887 | 0.943 | 0.921 | 0.943 | 0.923 | 0.387 | 0.445 | 0.442 | 0.387 | 0.745 | 0.776 | 0.886 | 0.931 | 0.645 |
| NCI-H1355 | 0.981 | 1.08 | 1.02 | 1.04 | 0.913 | 0.915 | 0.75 | 1.03 | 0.879 | 0.405 | 0.42 | 0.424 | 0.395 | 0.854 | 0.909 |  | 0.911 | 0.935 |
| H3255 | 0.978 | 1.06 | 1.05 | 1.02 | 0.876 | 0.929 | 0.919 | 0.933 | 0.893 | 0.658 | 0.544 | 0.613 | 0.548 | 0.518 | 0.555 | 0.545 | 0.367 | 0.551 |
| NCI-H2009 | 0.996 | 1.11 | 0.981 | 0.727 | 1.01 | 0.969 | 0.961 | 0.985 | 0.934 | 0.256 | 0.292 | 0.245 | 0.254 | 1.19 | 1.17 | 1.19 | 1.17 | 1.13 |
| NCI-H1734 | 0.935 | 1.15 | 1.02 | 0.991 | 0.926 | 0.804 | 0.962 | 0.949 | 0.916 | 0.664 | 0.771 | 0.747 | 0.732 | 0.784 | 0.86 | 0.71 | 0.856 | 0.752 |
| HOP-62 | 1.15 | 1.11 | 1.23 | 1.02 | 1.04 | 1.06 | 0.856 | 0.939 | 0.879 | 0.389 | 0.374 | 0.394 | 0.401 | 0.89 | 1.07 | 0.846 | 0.929 | 1.03 |
| LOU-NH91 | 0.984 | 1.04 | 1.04 | 1.02 | 0.981 | 0.908 |  | 0.979 | 1 | 0.815 | 0.839 | 0.838 | 0.791 | 0.628 | 0.581 |  | 0.652 | 0.606 |
| ChaGo-K-1 | 1.02 | 0.971 | 1.05 | 1.02 | 0.97 | 0.889 | 0.918 | 0.96 | 1.06 | 0.883 | 0.98 | 0.903 | 0.972 | 1.01 | 1.02 | 0.92 | 1.01 | 1.05 |
| NCI-H23 | 1.02 | 1.11 | 1 | 0.981 | 0.912 | 0.707 | 1.07 | 0.931 | 0.9 | 0.356 | 0.395 | 0.472 | 0.42 | 0.771 |  | 0.698 | 0.822 | 0.75 |
| RERF-LC-KJ | 1.09 | 0.986 | 1.02 | 1.03 | 0.951 | 1.05 | 0.966 | 0.968 | 0.912 | 0.97 | 0.728 | 0.991 | 0.743 | 0.717 | 1.06 | 1.03 | 0.931 | 0.822 |
| NCI-H1437 | 0.989 | 1.01 | 0.998 | 0.989 | 0.926 | 0.941 | 0.92 | 0.965 | 0.957 | 0.539 | 0.433 | 0.458 | 0.504 | 1 | 1.11 | 1.07 | 1.14 | 1.04 |
| NCI-H596 | 0.935 | 0.962 | 1.04 | 1.08 | 0.976 | 0.795 | 0.962 | 1.11 | 1.09 | 0.94 | 0.827 | 0.841 | 0.839 | 0.98 | 0.877 | 0.909 | 1.01 | 0.992 |
| NCI-H1666 | 0.966 | 1.02 | 1.08 | 1.05 | 1.06 | 1.03 | 0.975 | 1.05 | 0.914 | 0.896 | 0.855 | 1.02 | 0.772 | 0.946 | 0.912 | 1.03 | 0.934 | 0.953 |
| NCI-H1651 | 1.09 | 0.919 | 1.01 | 1.02 | 0.963 | 0.918 | 0.92 | 1 | 0.957 | 0.882 | 0.873 | 0.882 | 0.83 | 1.01 | 1.04 | 1.09 | 1.05 | 0.995 |
| NCI-H1755 | 1.03 | 1.01 | 1.12 | 1 | 1.01 | 0.944 | 0.856 | 0.926 | 0.913 | 0.703 | 0.812 | 0.756 | 0.742 | 0.986 | 0.99 | 0.923 | 0.958 | 0.914 |
| NCI-H838 | 1.09 | 1.04 | 1.03 | 0.988 | 0.92 | 0.748 | 0.931 | 0.958 | 0.904 | 0.619 | 0.505 | 0.551 | 0.564 | 1.12 | 1.1 | 1.2 | 1.15 | 1.14 |
| HARA | 0.931 | 1.21 | 1.07 | 1.22 | 0.882 | 0.954 | 0.62 | 0.774 | 0.784 | 0.68 | 0.54 | 0.893 | 0.627 | 1.08 | 1.07 | 1.15 | 1.13 | 0.941 |
